{
  "source": "patent US20160128944A1",
  "about": "“COATED PARTICLES AND COMPOSITIONS COMPRISING SAME” (VYOME BIOSCIENCES PVT. LTD., priority 2013, published 2016)",
  "test_system": "M. furfur",
  "source_text": "The time-kill assays are used to evaluate efficacy of antimicrobial agents, either singly or in combination, and the results can help in establishing the dose and/or time of application of the active. The time-kill assays can be used to study both concentration-dependent and time-dependent antimicrobial action.\nMethod: M. furfur cells were suspended in Sabouraud Dextrose Broth (SDB) at inoculum concentration of 7×10^7 cells/ml. Cells were taken from a freshly growing (3-7 days old) plate and cell suspension is vortexed to remove the cell clumps as much as possible. Sterile media were supplemented with chloramphenicol (0.25 mg/ml), cycloheximide (0.04 mg/ml) and olive oil (2%). The media were then supplemented with appropriate concentrations (two-fold serial dilutions using SDB) of zinc pyrithione powder (10 μg/ml and 50 μg/ml) with different concentrations of Capmul 908-P […]. The cultures were incubated on a tube rotator at 34° C. in CO2 incubator.\nTo measure the colony forming units (CFU), at different time points, aliquots (50 μl) of Malassezia cultures were serially diluted with SDBT medium (SDB containing 0.1% Triton X-100) and plated on SDA plates. The plates were incubated at 34° C. in CO2 incubator for 3 days. The viable colonies were counted and converted to CFU/ml.",
  "note": "Read-outs that look alike come from different tables or passages of the source.",
  "data": [
    {"substance": "zinc pyrithione [ZPT]", "values": [
      {"measurement": "Log CFU Count of M. furfur", "setting": "ZPT 10 μg/ml, Capmul 908-P 30 μg/ml, 6 hrs", "result": 6.50, "unit": "Log CFU"},
      {"measurement": "Log CFU Count of M. furfur", "setting": "ZPT 10 μg/ml, Capmul 908-P 30 μg/ml, 24 hrs", "result": 5.94, "unit": "Log CFU"},
      {"measurement": "Log CFU Count of M. furfur", "setting": "ZPT 10 μg/ml, Capmul 908-P 30 μg/ml, 48 hrs", "result": 5.06, "unit": "Log CFU"},
      {"measurement": "Log CFU Count of M. furfur", "setting": "ZPT 10 μg/ml, Capmul 908-P 50 μg/ml, 6 hrs", "result": 6.37, "unit": "Log CFU"},
      {"measurement": "Log CFU Count of M. furfur", "setting": "ZPT 10 μg/ml, Capmul 908-P 50 μg/ml, 24 hrs", "result": 5.57, "unit": "Log CFU"},
      {"measurement": "Log CFU Count of M. furfur", "setting": "ZPT 10 μg/ml, Capmul 908-P 50 μg/ml, 48 hrs", "result": 4.80, "unit": "Log CFU"},
      {"measurement": "Log CFU Count of M. furfur", "setting": "ZPT 10 μg/ml, Capmul 908-P 90 μg/ml, 6 hrs", "result": 6.33, "unit": "Log CFU"},
      {"measurement": "Log CFU Count of M. furfur", "setting": "ZPT 10 μg/ml, Capmul 908-P 90 μg/ml, 24 hrs", "result": 5.55, "unit": "Log CFU"},
      {"measurement": "Log CFU Count of M. furfur", "setting": "ZPT 10 μg/ml, Capmul 908-P 90 μg/ml, 48 hrs", "result": 4.77, "unit": "Log CFU"},
      {"measurement": "Log CFU Count of M. furfur", "setting": "ZPT 10 μg/ml, Capmul 908-P nil, 6 hrs", "result": 6.56, "unit": "Log CFU"},
      {"measurement": "Log CFU Count of M. furfur", "setting": "ZPT 10 μg/ml, Capmul 908-P nil, 24 hrs", "result": 6.13, "unit": "Log CFU"},
      {"measurement": "Log CFU Count of M. furfur", "setting": "ZPT 10 μg/ml, Capmul 908-P nil, 48 hrs", "result": 5.27, "unit": "Log CFU"},
      {"measurement": "Log CFU Count of M. furfur", "setting": "ZPT 50 μg/ml, Capmul 908-P 30 μg/ml, 6 h", "result": 6.06, "unit": "Log CFU"},
      {"measurement": "Log CFU Count of M. furfur", "setting": "ZPT 50 μg/ml, Capmul 908-P 30 μg/ml, 24 h", "result": 4.69, "unit": "Log CFU"},
      {"measurement": "Log CFU Count of M. furfur", "setting": "ZPT 50 μg/ml, Capmul 908-P 30 μg/ml, 48 h", "result": 3.25, "unit": "Log CFU"},
      {"measurement": "Log CFU Count of M. furfur", "setting": "ZPT 50 μg/ml, Capmul 908-P 50 μg/ml, 6 h", "result": 5.94, "unit": "Log CFU"},
      {"measurement": "Log CFU Count of M. furfur", "setting": "ZPT 50 μg/ml, Capmul 908-P 50 μg/ml, 24 h", "result": 4.62, "unit": "Log CFU"},
      {"measurement": "Log CFU Count of M. furfur", "setting": "ZPT 50 μg/ml, Capmul 908-P 50 μg/ml, 48 h", "result": 3.04, "unit": "Log CFU"},
      {"measurement": "Log CFU Count of M. furfur", "setting": "ZPT 50 μg/ml, Capmul 908-P 90 μg/ml, 6 h", "result": 5.52, "unit": "Log CFU"},
      {"measurement": "Log CFU Count of M. furfur", "setting": "ZPT 50 μg/ml, Capmul 908-P 90 μg/ml, 24 h", "result": 3.63, "unit": "Log CFU"},
      {"measurement": "Log CFU Count of M. furfur", "setting": "ZPT 50 μg/ml, Capmul 908-P 90 μg/ml, 48 h", "result": 2.08, "unit": "Log CFU"},
      {"measurement": "Log CFU Count of M. furfur", "setting": "ZPT 50 μg/ml, Capmul 908-P nil, 6 h", "result": 6.43, "unit": "Log CFU"},
      {"measurement": "Log CFU Count of M. furfur", "setting": "ZPT 50 μg/ml, Capmul 908-P nil, 24 h", "result": 5.39, "unit": "Log CFU"},
      {"measurement": "Log CFU Count of M. furfur", "setting": "ZPT 50 μg/ml, Capmul 908-P nil, 48 h", "result": 3.92, "unit": "Log CFU"},
      {"measurement": "anti-microbial activity towards M. furfur in combination with propylene glycol monocaprylate", "setting": "time-kill, ZPT 10 and 50 μg/ml with Capmul 908-P", "result": "potentiated with increasing concentration of propylene glycol monocaprylate"}
    ]}
  ]
}
